Experimental data taken from patent US8236793B2, “Diazabicyclic aryl derivatives as cholinergic receptor modulators” (Neurosearch A/S, priority 2004, dated 2012).
Counter-ions that a name gives are not always drawn.

System: not given
Assay: not given
Settings: not given

| melting point | SMILES |
| --- | --- |
| 184 to 187 °C | CC(=O)Nc1cccc(C(=O)Nc2ccc(N3CCN4CCC3CC4)cc2)c1 |
| 173.5 to 175 °C | Fc1cccc(C#Cc2ccc(N3CCN4CCC3CC4)nn2)c1 (as salt: fumaric acid salt) |
| 181.7 to 183.4 °C | Nc1ccc(C#Cc2ccc(N3CCN4CCC3CC4)nn2)cc1 |
| > 240 °C | CC(=O)Nc1ccc(C(=O)Nc2ccc(N3CCN4CCC3CC4)cc2)cc1 |
| 60 °C | CC(=O)Nc1cccc(C(=O)Nc2ccc(N3CCN4CCC3CC4)nc2)c1 |
| 255 °C (dec.) | CC(=O)Nc1ccc(C(=O)Nc2ccc(N3CCN4CCC3CC4)nc2)cc1 |

| SMILES | melting point |
| --- | --- |
| C(#Cc1ccc(N2CCN3CCC2CC3)nn1)c1cccnc1 (as salt: fumaric acid salt) [Compound B5, 4-[6-(3-Pyridinlethynyl)-pyridazin-3-yl]-1,4-diaza-bicyclo[3.2.2]nonane] | 177.8 to 181.2 °C |
| COc1ccc(C#Cc2ccc(N3CCN4CCC3CC4)nn2)cc1 (as salt: fumaric acid salt) [Compound B4, 4-[6-(4-Methoxy-phenylethynyl)-pyridazin-3-yl]-1,4-diaza-bicyclo[3.2.2]nonane] | 208 to 209 °C |

Target: T1, α7-subtype of nicotinic receptors (Rattus norvegicus, UniProt Q05941)
T1 construct: Cerebral cortices from male Wistar rats (150-250 g) are homogenised; from tissue; host or cells: rat cerebral cortex membrane homogenate (male Wistar rats)
T1 sequence (Q05941 23-502): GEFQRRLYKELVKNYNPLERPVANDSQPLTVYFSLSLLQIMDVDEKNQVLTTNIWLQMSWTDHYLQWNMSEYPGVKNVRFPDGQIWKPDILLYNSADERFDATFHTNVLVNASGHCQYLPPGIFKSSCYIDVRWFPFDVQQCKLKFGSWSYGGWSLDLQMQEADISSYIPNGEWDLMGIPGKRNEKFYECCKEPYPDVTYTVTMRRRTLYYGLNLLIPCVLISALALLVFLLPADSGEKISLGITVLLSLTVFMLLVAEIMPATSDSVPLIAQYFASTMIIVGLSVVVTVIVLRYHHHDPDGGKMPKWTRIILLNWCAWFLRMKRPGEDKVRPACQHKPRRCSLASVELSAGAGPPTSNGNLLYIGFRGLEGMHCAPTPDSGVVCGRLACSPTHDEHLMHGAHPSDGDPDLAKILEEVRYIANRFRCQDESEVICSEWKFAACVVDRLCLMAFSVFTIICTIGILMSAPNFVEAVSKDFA
Assay: In vitro inhibition of 3H-α-bungarotoxine binding in rat brain
Settings: rat cerebral cortex homogenate; 3H-α-bungarotoxine 2 nM; 2 hours at 37° C.

| SMILES | IC50 [nM] |
| --- | --- |
| COc1ccc(C#Cc2ccc(N3CCN4CCC3CC4)nn2)cc1 [Compound B4, 4-[6-(4-Methoxy-phenylethynyl)-pyridazin-3-yl]-1,4-diaza-bicyclo[3.2.2]nonane] | 180 |
| C(#Cc1ccc(N2CCN3CCC2CC3)nn1)c1cccnc1 [Compound B5, 4-[6-(3-Pyridinlethynyl)-pyridazin-3-yl]-1,4-diaza-bicyclo[3.2.2]nonane] | 150 |
| C(#Cc1ccc(N2CCN3CCC2CC3)nn1)c1ccccc1 [Compound B1, 4-(6-Phenylethynyl-pyridazin-3-yl)-1,4-diaza-bicyclo[3.2.2]nonane] | 60 |
| c1ccc(Sc2ccc(N3CCN4CCC3CC4)nn2)cc1 [Compound C1, 4-(6-Phenylsulfanyl-pyridazin-3-yl)-1,4-diaza-bicyclo[3.2.2]nonane] | 600 |
